Results from patent publication US6664214B1, “Uracil compounds and use thereof” (Sumitomo Chemical Company, Limited, priority 1999, dated 2003).

Key:
Parameters in all cases: key: 0: little difference in the degree of germination or growth between the treated plants and the untreated plants at the time of examination; 10: the treated plants died completely or their germination or growth was completely inhibited
[1] = system: large crabgrass; assay: Test Example 5: foliar treatment on upland field (Table 6); type: in vivo, Digitaria sanguinalis; conditions: 125 g/ha, 19 days after application, index 0 to 10
Description: In the examples, the compounds are identified by the Compound Numbers as in Tables 1 to 3. […] A pot for plug seedlings seeded with large crabgrass. The test plant was grown in a greenhouse for 14 days, then transplanted into a plastic pot having an area of 17×12 cm^2 and a depth of 7 cm, and further the test plants were grown in the greenhouse for 8 days. Then each of compounds listed below was formulated into an emulsifiable concentrate according to Formulation Example 2 and then diluted to the prescribed amount with water containing a spreading agent and the dilution was uniformly sprayed over the foliage of the test plants with sprayer at a rate of 1000 liters per hectare. After the application, the test plants were grown in the greenhouse for 19 days, and the herbicidal activity were determined.

[2] = system: ivyleaf morningglory; assay: Test Example 3: foliar treatment on upland field (Table 4); type: in vivo, Ipomoea hederacea; conditions: 125 g/ha active ingredient, examined 16 days after application, index 0-10
Description: (§1) In the examples, the compounds are identified by the Compound Numbers as in Tables 1 to 3. […] A cylindrical plastic pot having a diameter of 10 cm and a depth of 10 cm was filled with soil and seeded with ivyleaf momingglory, velvetleaf and barnyardgrass. These test plants were grown in a greenhouse for 10 days. Then each of compounds listed below was formulated into an emulsifiable concentrate according to Formulation Example 2 and then diluted to the prescribed amount with water containing a spreading agent and the dilution was uniformly sprayed over the foliage of the test plants with sprayer at a rate of 1000 liters per hectare. After the application, the test plants were grown in the greenhouse for 16 days, and the herbicidal activity were determined.

[3] = system: ivyleaf morningglory; assay: Test Example 4: soil surface treatment on upland field (Table 5); type: in vivo, Ipomoea hederacea; conditions: 500 g/ha active ingredient, examined 12 days after application, index 0-10
Text: (§2) In the examples, the compounds are identified by the Compound Numbers as in Tables 1 to 3. […] A cylindrical plastic pot having a diameter of 10 cm and a depth of 10 cm was filled with soil and seeded ivyleaf morningglory, velvetleaf and barnyardgrass. Then each of compounds listed below was formulated into an emulsifiable concentrate according to Formulation Example 2 and then diluted to the prescribed amount with water and dilution was uniformly sprayed over the surface of the soil with sprayer at the rate of 1000 liters per hectare. After the application, the test plants were grown in a greenhouse for 12 days, and the herbicidal activity was examined.

[4] = system: barnyardgrass; assay: as above; type: in vivo, Echinochloa crus-galli; conditions: 500 g/ha active ingredient, examined 12 days after application, index 0-10
Text: as §2

[5] = system: velvetleaf; assay: Test Example 3: foliar treatment on upland field (Table 4); type: in vivo, Abutilon theophrasti; conditions: 125 g/ha active ingredient, examined 16 days after application, index 0-10
Description: as §1

[6] = system: barnyardgrass; assay: as above; type: in vivo, Echinochloa crus-galli; conditions: 125 g/ha active ingredient, examined 16 days after application, index 0-10
Description: as §1

[7] = system: velvetleaf; assay: Test Example 4: soil surface treatment on upland field (Table 5); type: in vivo, Abutilon theophrasti; conditions: 500 g/ha active ingredient, examined 12 days after application, index 0-10
Text: as §2

| SMILES | Herbicidal effect Large crabgrass [1] | Herbicidal effect Ivyleaf morningglory [2] | Herbicidal effect Ivyleaf morningglory [3] | Herbicidal effect Barnyardgrass [4] | Herbicidal effect Velvetleaf [5] | Herbicidal effect Barnyardgrass [6] | Herbicidal effect Velvetleaf [7] |
| --- | --- | --- | --- | --- | --- | --- | --- |
| CCOC(=O)C(C)Oc1ccc(COc2cc(-n3c(=O)cc(C(F)(F)F)n(C)c3=O)c(F)cc2Cl)cc1 (stereo not drawn) [Compound 1-2, Ethyl 2-[4-({2-chloro-4-fluoro-5-[3-methyl-2,6-dioxo-4-(trifluoromethyl)-1,2,3,6-tetrahydropyrimidine-1-yl]phenoxy}methyl)phenoxy]propionate] | 10 | 10 | 10 | 10 | 10 | 10 | 10 |
| COC(=O)C(C)Oc1ccc(C(C)Oc2cc(-n3c(=O)cc(C(F)(F)F)n(C)c3=O)c(F)cc2Cl)cc1 (stereo not drawn) [Compound 1-21, Methyl 2-[4-(1-{2-chloro-4-fluoro-5-[3-methyl-2,6-dioxo-4-(trifluoromethyl)-1,2,3,6-tetrahydropyrimidine-1-yl]phenoxy}ethyl)phenoxy]propionate] | 10 | 10 | 10 | 10 | 10 | 10 | 10 |
| CCOC(=O)C(C)Oc1ccc(COc2cc(-n3c(=O)cc(C(F)(F)F)n(C)c3=O)c(F)cc2Cl)cc1Cl (stereo not drawn) [Compound 1-42, Ethyl 2-[2-chloro-4-({2-chloro-4-fluoro-5-[3-methyl-2,6-dioxo-4-(trifluoromethyl)-1,2,3,6-tetrahydropyrimidine-1-yl]phenoxy}methyl)phenoxy]propionate] | 10 | 10 | 10 | 8 | 10 | 10 | 10 |
| COC(=O)C(C)Oc1ccc(COc2cc(-n3c(=O)cc(C(F)(F)F)n(C)c3=O)c(F)cc2Cl)cc1OC (stereo not drawn) [Compound 1-61, Methyl 2-[4-({2-chloro-4-fluoro-5-[3-methyl-2,6-dioxo-4-(trifluoromethyl)-1,2,3,6-tetrahydropyrimidine-1-yl]phenoxy}methyl)-2-methoxyphenoxy]propionate] | 10 | 10 | 10 | 10 | 10 | 10 | 10 |
| COC(=O)C(C)Oc1ccc(COc2cc(-n3c(=O)cc(C(F)(F)F)n(C)c3=O)c(F)cc2Cl)cc1C (stereo not drawn) [Compound 1-101, Methyl 2-[4-({2-chloro-4-fluoro-5-[3-methyl-2,6-dioxo-4-(trifluoromethyl)-1,2,3,6-tetrahydropyrimidine-1-yl]phenoxy}methyl)-2-methylphenoxy]propionate] | 10 | 10 | 10 | 10 | 10 | 10 | 10 |
| COC(=O)C(C)Oc1c(Br)cc(COc2cc(-n3c(=O)cc(C(F)(F)F)n(C)c3=O)c(F)cc2Cl)cc1OC (stereo not drawn) [Compound 1-161, Methyl 2-[2-bromo-4-({2-chloro-4-fluoro-5-[3-methyl-2,6-dioxo-4-(trifluoromethyl)-1,2,3,6-tetrahydropyrimidine-1-yl]phenoxy}methyl)-6-methoxyphenoxy]propionate] | 10 | 10 | 7 | 4 | 10 | 8 | 10 |
| CCC(Oc1cc(-n2c(=O)cc(C(F)(F)F)n(C)c2=O)c(F)cc1Cl)c1ccc(OC(C)C(=O)OC)cc1 (stereo not drawn) [Compound 1-213, Methyl 2-[4-(1-{2-chloro-4-fluoro-5-[3-methyl-2,6-dioxo-4-(trifluoromethyl)-1,2,3,6-tetrahydropyrimidine-1-yl]phenoxy}propyl)phenoxy]propionate] | 10 | 10 | 10 | 10 | 10 | 10 | 10 |
| COC(=O)C(C)Oc1ccc(C(C#N)Oc2cc(-n3c(=O)cc(C(F)(F)F)n(C)c3=O)c(F)cc2Cl)cc1 (stereo not drawn) [Compound 1-226, Methyl 2-{4-[{2-chloro-4-fluoro-5-[3-methyl-2,6-dioxo-4-(trifluoromethyl)-1,2,3,6-tetrahydropyrimidine-1-yl]phenoxy}(cyano)methyl]phenoxy}propionate] | 10 | 10 | 10 | 9 | 10 | 10 | 10 |
| COC(=O)C(C)Oc1c(OC)cc(COc2cc(-n3c(=O)cc(C(F)(F)F)n(C)c3=O)c(F)cc2Cl)cc1OC (stereo not drawn) [Compound 1-238, Methyl 2-[4-({2-chloro-4-fluoro-5-[3-methyl-2,6-dioxo-4-(trifluoromethyl)-1,2,3,6-tetrahydropyrimidine-1-yl]phenoxy}methyl)-2,6-dimethoxyphenoxy]propionate] | 10 | 10 | 10 | 8 | 10 | 9 | 10 |
| COC(=O)C(C)Oc1ccc(COc2cc(-n3c(=O)cc(C(F)(F)F)n(C)c3=O)c(F)cc2Cl)c(F)c1 (stereo not drawn) [Compound 1-242, Methyl 2-[4-({2-chloro-4-fluoro-5-[3-methyl-2,6-dioxo-4-(trifluoromethyl)-1,2,3,6-tetrahydropyrimidine-1-yl]phenoxy}methyl)-3-fluorophenoxy]propionate] | 10 | 10 | 10 | 10 | 10 | 10 | 10 |
| COC(=O)C(C)Oc1ccc(C(Oc2cc(-n3c(=O)cc(C(F)(F)F)n(C)c3=O)c(F)cc2Cl)c2ccccc2)cc1 (stereo not drawn) [Compound 1-246, Methyl 2-[4-({2-chloro-4-fluoro-5-[3-methyl-2,6-dioxo-4-(trifluoromethyl)-1,2,3,6-tetrahydropyrimidine-1-yl]phenoxy}(phenyl)methyl)phenoxy]propionate] | 10 | 10 | 8 | 10 | 10 | 8 | 10 |
| COC(=O)COc1cccc(COc2cc(-n3c(=O)cc(C(F)(F)F)n(C)c3=O)c(F)cc2Cl)c1 [Compound 2-11, Methyl 2-[3-({2-chloro-4-fluoro-5-[3-methyl-2,6-dioxo-4-(trifluoromethyl)-1,2,3,6-tetrahydropyrimidine-1-yl]phenoxy}methyl)phenoxy]acetate] | 10 | 10 | 10 | 9 | 10 | 8 | 10 |
